# What was measured:
# Assay type in all cases: in vivo
# [1] = system: Alopecurus myosuroides (ALOMY); experiment: Pre-emergence herbicidal glasshouse test on Alopecurus myosuroides; settings: pre-emergence, 1000 g/h, evaluated after 13 days
# In short: (§1)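 Pre-emergence treatment came one day after sowing, post-emergence treatment after eight days' growth; both used 1000 g/h in a 0.5% Tween 20 acetone/water vehicle. Percent damage, scored 1–5, was read 13 days later.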
# Setaria faberi (SETFA) [2] = experiment: Pre-emergence herbicidal glasshouse test on Setaria faberi; settings: pre-emergence, 1000 g/h, evaluated after 13 days
# In short: as §1
# [3] = system: Echinochloa crus-galli (ECHCG); experiment: Pre-emergence herbicidal glasshouse test on Echinochloa crus-galli; settings: pre-emergence, 1000 g/h, evaluated after 13 days
# In short: as §1
# Solanum nigrum (SOLNI) [4] = experiment: Pre-emergence herbicidal glasshouse test on Solanum nigrum; settings: pre-emergence, 1000 g/h, evaluated after 13 days
# In short: as §1
# [5] = system: Amaranthus retoflexus (AMARE); experiment: Pre-emergence herbicidal glasshouse test on Amaranthus retoflexus; settings: pre-emergence, 1000 g/h, evaluated after 13 days
# In short: as §1
# [6] = system: Ipomoea hederacea (IPOHE); experiment: Pre-emergence herbicidal glasshouse test on Ipomoea hederacea; settings: pre-emergence, 1000 g/h, evaluated after 13 days
# In short: as §1
# [7] = system: Alopecurus myosuroides (ALOMY); experiment: Post-emergence herbicidal glasshouse test on Alopecurus myosuroides; settings: post-emergence, 1000 g/h, evaluated after 13 days
# In short: as §1
# Setaria faberi (SETFA) [8] = experiment: Post-emergence herbicidal glasshouse test on Setaria faberi; settings: post-emergence, 1000 g/h, evaluated after 13 days
# In short: as §1
# [9] = system: Echinochloa crus-galli (ECHCG); experiment: Post-emergence herbicidal glasshouse test on Echinochloa crus-galli; settings: post-emergence, 1000 g/h, evaluated after 13 days
# In short: as §1
# Solanum nigrum (SOLNI) [10] = experiment: Post-emergence herbicidal glasshouse test on Solanum nigrum; settings: post-emergence, 1000 g/h, evaluated after 13 days
# In short: as §1
# [11] = system: Amaranthus retoflexus (AMARE); experiment: Post-emergence herbicidal glasshouse test on Amaranthus retoflexus; settings: post-emergence, 1000 g/h, evaluated after 13 days
# In short: as §1
# [12] = system: Ipomoea hederacea (IPOHE); experiment: Post-emergence herbicidal glasshouse test on Ipomoea hederacea; settings: post-emergence, 1000 g/h, evaluated after 13 days
# In short: as §1
Compound,PRE Application ALOMY herbicidal damage (five point scale) [1],PRE Application SETFA herbicidal damage (five point scale) (Setaria faberi (SETFA) [2]),PRE Application ECHCG herbicidal damage (five point scale) [3],PRE Application SOLNI herbicidal damage (five point scale) (Solanum nigrum (SOLNI) [4]),PRE Application AMARE herbicidal damage (five point scale) [5],PRE Application IPOHE herbicidal damage (five point scale) [6],POST Application ALOMY herbicidal damage (five point scale) [7],POST Application SETFA herbicidal damage (five point scale) (Setaria faberi (SETFA) [8]),POST Application ECHCG herbicidal damage (five point scale) [9],POST Application SOLNI herbicidal damage (five point scale) (Solanum nigrum (SOLNI) [10]),POST Application AMARE herbicidal damage (five point scale) [11],POST Application IPOHE herbicidal damage (five point scale) [12],also measured
COCn1ncc(-c2ccc(Cl)cc2S(C)(=O)=O)c(O)c1=O [Compound 2.005],5 (5=80-100% damage),5 (5=80-100% damage),5 (5=80-100% damage),5 (5=80-100% damage),5 (5=80-100% damage),5 (5=80-100% damage),5 (5=80-100% damage),5 (5=80-100% damage),5 (5=80-100% damage),5 (5=80-100% damage),5 (5=80-100% damage),5 (5=80-100% damage),–
Cn1ncc(-c2cccn(-c3cccc(C(F)(F)F)c3)c2=O)c(O)c1=O [Compound 1.152],–,–,–,–,–,–,–,–,–,–,–,–,"herbicidal damage, PRE Application ALOMY ([1]; five point scale): 4 (4=60-79% damage); herbicidal damage, PRE Application SETFA (Setaria faberi (SETFA) [2]; five point scale): 5 (5=80-100% damage); herbicidal damage, PRE Application ECHCG ([3]; five point scale): 2 (2=20-39% damage); herbicidal damage, PRE Application SOLNI (Solanum nigrum (SOLNI) [4]; five point scale): 2 (2=20-39% damage); herbicidal damage, PRE Application AMARE ([5]; five point scale): 2 (2=20-39% damage); herbicidal damage, PRE Application IPOHE ([6]; five point scale): 1 (1=0-19% damage); herbicidal damage, POST Application ALOMY ([7]; five point scale): 1 (1=0-19% damage); herbicidal damage, POST Application SETFA (Setaria faberi (SETFA) [8]; five point scale): 1 (1=0-19% damage); herbicidal damage, POST Application ECHCG ([9]; five point scale): 1 (1=0-19% damage); herbicidal damage, POST Application SOLNI (Solanum nigrum (SOLNI) [10]; five point scale): 1 (1=0-19% damage); herbicidal damage, POST Application AMARE ([11]; five point scale): 1 (1=0-19% damage); herbicidal damage, POST Application IPOHE ([12]; five point scale): 2 (2=20-39% damage)"
Cn1ncc(-c2cc(F)ccc2Cl)c(O)c1=O [Compound 1.086],1 (1=0-19% damage),1 (1=0-19% damage),1 (1=0-19% damage),1 (1=0-19% damage),1 (1=0-19% damage),1 (1=0-19% damage),1 (1=0-19% damage),1 (1=0-19% damage),1 (1=0-19% damage),1 (1=0-19% damage),1 (1=0-19% damage),1 (1=0-19% damage),–
COc1ccc(-c2c(C(F)(F)F)ccn(-c3cnn(C)c(=O)c3O)c2=O)cc1 [Compound 7.033],5 (5=80-100% damage),5 (5=80-100% damage),5 (5=80-100% damage),5 (5=80-100% damage),5 (5=80-100% damage),4 (4=60-79% damage),5 (5=80-100% damage),5 (5=80-100% damage),5 (5=80-100% damage),5 (5=80-100% damage),5 (5=80-100% damage),3 (3=40-59% damage),–
CCC(C)n1ncc(-c2ccc(S(C)(=O)=O)c(C3=NOCC3)c2C)c(O)c1=O (stereo not drawn) [Compound 1.003],1 (1=0-19% damage),1 (1=0-19% damage),5 (5=80-100% damage),4 (4=60-79% damage),5 (5=80-100% damage),3 (3=40-59% damage),2 (2=20-39% damage),5 (5=80-100% damage),5 (5=80-100% damage),5 (5=80-100% damage),5 (5=80-100% damage),5 (5=80-100% damage),–
Cc1ccccc1-c1c(C(F)(F)F)ccn(-c2cnn(C)c(=O)c2O)c1=O [Compound 1.053],5 (5=80-100% damage),4 (4=60-79% damage),5 (5=80-100% damage),5 (5=80-100% damage),5 (5=80-100% damage),2 (2=20-39% damage),5 (5=80-100% damage),4 (4=60-79% damage),5 (5=80-100% damage),5 (5=80-100% damage),5 (5=80-100% damage),5 (5=80-100% damage),–
Cn1ncc(-c2ccc(C(F)(F)F)cc2Cl)c(O)c1=O [Compound 1.076],1 (1=0-19% damage),1 (1=0-19% damage),1 (1=0-19% damage),2 (2=20-39% damage),5 (5=80-100% damage),1 (1=0-19% damage),2 (2=20-39% damage),1 (1=0-19% damage),2 (2=20-39% damage),4 (4=60-79% damage),5 (5=80-100% damage),4 (4=60-79% damage),–
"CCCOc1nn(C)c(=O)c(O)c1-c1ccc(C(F)(F)F)cc1S(C)(=O)=O [Compound 2.051, 4-hydroxy-2-methyl-5-[2-methylsulfonyl-4-(trifluoromethyl)phenyl]-6-propoxy-pyridazin-3-one]",5 (5=80-100% damage),3 (3=40-59% damage),5 (5=80-100% damage),5 (5=80-100% damage),5 (5=80-100% damage),4 (4=60-79% damage),5 (5=80-100% damage),5 (5=80-100% damage),5 (5=80-100% damage),5 (5=80-100% damage),5 (5=80-100% damage),5 (5=80-100% damage),–
Cn1ncc(-c2cc(C(F)(F)F)ccc2F)c(O)c1=O [Compound 1.096],1 (1=0-19% damage),1 (1=0-19% damage),1 (1=0-19% damage),1 (1=0-19% damage),1 (1=0-19% damage),1 (1=0-19% damage),1 (1=0-19% damage),1 (1=0-19% damage),1 (1=0-19% damage),1 (1=0-19% damage),1 (1=0-19% damage),2 (2=20-39% damage),–
C=C(C)c1ccc(-c2cnn(C)c(=O)c2O)c(S(C)(=O)=O)c1 [Compound 1.140],5 (5=80-100% damage),1 (1=0-19% damage),5 (5=80-100% damage),5 (5=80-100% damage),5 (5=80-100% damage),2 (2=20-39% damage),5 (5=80-100% damage),3 (3=40-59% damage),5 (5=80-100% damage),5 (5=80-100% damage),5 (5=80-100% damage),5 (5=80-100% damage),–

# From patent US9693556B2, “Herbicidal pyridazinone derivatives” (SYNGENTA LIMITED, priority 2011, dated 2017)
